Laboratory results from PMC3038380 (Bioorganic & Medicinal Chemistry, 2010).

Key:
[1] = free C8 fatty acid; cited from earlier work
[2] = NMR chemical shift titration with DPC-d38; format: binding; settings: pH 5.0, 1.0 mM octanoic acid or 1.14 mM ghrelin

unitary Gibbs free energy ΔGu0 of binding to DPC micelles [2]: -8.6 kcal/mol
Structure (SMILES): CCCCCCCC(=O)O [octanoic acid]
free energy for the transfer from aqueous into a hydrophobic environment [1]: -1.5 kcal/mol
